Assay results: PMC4167557 (Nanomedicine (London, England), 2014)
Bridges are numbered along the chain shown (N, C = ends). Where no end group is shown, it is not given here.

What was measured:
[1] = system: vital organs (heart, liver, spleen, lung, kidney); assay: Histological analysis of organ toxicity; assay type: in vivo; conditions: mice, 5 days after treatment
[2] = Pharmacokinetics in rats after single intravenous injection; assay type: in vivo, Sprague–Dawley rats
[3] = Pharmacokinetics in mice after single intravenous injection; assay type: in vivo, BALB/c mice
[4] = system: plasma cardiac troponin T (cTnT); assay: Plasma cardiac troponin T ELISA; assay type: in vivo; conditions: single dose DNR 15 mg/kg
[5] = system: plasma creatine kinase MB isoenzyme; assay: Plasma CK-MB ELISA; assay type: in vivo; conditions: mice, single dose DNR 15 mg/kg
[6] = system: Caspase 3/7 in heart tissues; assay: Caspase-Glo 3/7 assay in heart tissue; assay type: in vivo; conditions: 25 mg/kg, 5 days after treatment
K562-CLL1 xenograft = assay: Efficacy in mice bearing K562-CLL1 xenograft; assay type: in vivo, nude mice; conditions: 10 mg/kg every 3 days
CLL1-expressing cells = conditions: therapeutic concentration of approximately 4 µM ref 8; cited from earlier work
[7] = Sprague-Dawley, rat, plasma, iv, 5 mg/kg
[8] = rats, 5 mg/kg DNR iv, mean ± SD
[9] = BALB/c, mouse, plasma, iv, 10 mg/kg
[10] = mice, 10 mg/kg DNR iv, mean ± SD

Question: For `COc1cccc2c1C(=O)c1c(O)c3c(c(O)c1C2=O)C[C@@](O)(C(C)=O)C[C@@H]3O[C@H]1C[C@H](N)[C@H](O)[C@H](C)O1` [Free DNR, daunorubicin], which “histopathological changes in cardiac tissue” value ([1]; 25 mg/kg) is on record?
Answer: The value was “marked myocardial toxicity”.

Question: What about the “histopathological changes in spleen” value ([1]; low- or high-dose (5 and 25 mg/kg)) of the same compound?
Answer: Its value is “Marked red pulp hemorrhage-associated compensative sinusoidal histocytic proliferation and extramedullary hematopoiesis”.

Question: What about the AUC(0-t) [2, 7] of the same compound?
Answer: Its AUC(0-t) is 3.6 ± 0.79 µg·h/mL.

Question: And the Cmax [2, 7]?
Answer: The Cmax was 1910 ± 260 ng/mL.

Question: What about the MRT [2, 7] of the same compound?
Answer: Its MRT is 36.2 ± 6.51 h.

Question: What about the Vd [2, 7] of the same compound?
Answer: Its Vd is 50.8 L/kg.

Question: What about the clearance [2, 7] of the same compound?
Answer: Its clearance is 23.7 ± 5.2 mL/min/kg.

Question: And the half-life ([2]; Sprague-Dawley, rat, plasma, iv, 5 mg/kg, T 1/2β, rats, 5 mg/kg DNR iv)?
Answer: The half-life was 25.4 ± 4.54 h.

Question: What about the “T 1/2α” value ([2]; rats, 5 mg/kg DNR iv) of the same compound?
Answer: Its value is 56.4 ± 0 s.

Question: What about the Kel [2, 8] of the same compound?
Answer: The Kel was 0.01 ± 0.00.

Question: And the α [2, 8]?
Answer: Its α is 0.74 ± 0.00 min⁻¹.

Question: What about the β [2, 8] of the same compound?
Answer: The β was 0.00 ± 0.00 min⁻¹.

Question: And the AUC(0-t) [3, 9]?
Answer: The AUC(0-t) was 836 ± 151 µg·h/mL.

Question: And the Cmax [3, 9]?
Answer: Its Cmax is 961000 ± 92000 ng/mL.

Question: What about the MRT [3, 9] of the same compound?
Answer: The MRT was 16.7 h.

Question: What about the Vd [3, 9] of the same compound?
Answer: Its Vd is 0.205 ± 0.048 L/kg.

Question: And the clearance [3, 9]?
Answer: The clearance was 0.2 ± 0.03 mL/min/kg.

Question: What about the concentration at 24 h [3, 9] of the same compound?
Answer: The concentration at 24 h was 13600 ± 1920 ng/mL.

Question: What about the half-life ([3]; BALB/c, mouse, plasma, iv, 10 mg/kg, T 1/2β, mice, 10 mg/kg DNR iv) of the same compound?
Answer: Its half-life is 11.9 ± 1 h.

Question: And the “T 1/2α” value ([3]; mice, 10 mg/kg DNR iv, initial half-life in plasma)?
Answer: Its value is 1.11 ± 0.04 min.

Question: And the Kel [3, 10]?
Answer: The Kel was 3.68 ± 6.35.

Question: What about the α [3, 10] of the same compound?
Answer: Its α is 0.63 ± 0.02 min⁻¹.

Question: And the β [3, 10]?
Answer: Its β is 0.0001 min⁻¹.

Question: And the “cTnT level relative to control mice” value ([4]; 1 day after dosing)?
Answer: Its value is 9.15 times.

Question: And the “cTnT level relative to control mice” value ([4]; 3 days (peak))?
Answer: Its value is 15.8 times.

Question: And the “plasma CK-MB level” value ([5]; 3 h after dosing)?
Answer: Its value is 60.02 ± 4.05 U/l.

Question: What about the “plasma CK-MB level” value ([5]; 5 days of follow-up) of the same compound?
Answer: The value was 113.98 ± 10.42 U/l.

Question: What about the “caspase 3/7 activity in cardiac tissue relative to control mice treated with PBS” value [6] of the same compound?
Answer: Its value is “about 3.46 times”.

Question: And the overall survival (K562-CLL1 xenograft)?
Answer: The overall survival was 44 days.

Question: Which “increase of micelle-mediated drug delivery to CLL1-expressing cells” value (CLL1-expressing cells) does the source give for “CLL1-targeting ligand: CLL1-targeting peptide (amino acid sequence: CDLRSAAVC), cyclized via disulfide (disulfide 1-9 (inferred))” here?
Answer: Its value is “approximately threefold”.
